Measured values reported in patent US9145412B2, “Selective HDAC1 and HDAC2 inhibitors” (Acetylon Pharmaceuticals, Inc., priority 2012, dated 2015).

Assays:
[1] = test system: human CD34+ bone marrow cells; experiment: Fetal globin (HbG) induction in cultured CD34+ cells undergoing erythroid differentiation; format: cell-based; conditions: for increase in the percentage of HbG relative to other beta-like globin transcripts: 1 μM, treatment of cells for 6 days
Procedure: CD34+ cells isolated from human bone marrow were cultured in vitro using two distinct sets of culture conditions. Culture system 1 (CS1), described by Xu J et al. (Science 2011 Nov. 18; 334(6058):993-6), consists of a 7 day expansion phase in media that supports hematopoietic progenitor cells followed by a differentiation phase of 4 to 8 days in media that induces development of erythroid lineage cells. Culture system 2 (CS2), described by Bradner J E (Proc Natl Acad Sci USA. 2010 Jul. 13; 107(28):12617-22), consists of a 7 day expansion phase in media that supports differentiation of cells towards the erythroid lineage followed by a differentiation phase for 3 days where erythroid cell development continues. After 3 to 5 days in differentiation media CS1 cells are primarily early erythroblasts (EB), while CS2 cells are primarily late EB. mRNA levels were determine by quantitative real time PCR using primer/probe sets designed to adult major β-globin (β), adult minor β-globin (δ), fetal β-like globin (HbG, γ), and embryonic β-like globin (ε). Protein levels were determined by flow cytometry using fluorescent antibodies against fetal hemoglobin (HbF) or adult hemoglobin (HbA). […] Globin mRNA levels were determined in cells at day 0, 3, 5, and 8 of differentiation. […] Globin mRNA levels were determined at day 3 of differentiation. […] Hemoglobin protein levels within each cell were determined at day 5 of differentiation. […] After 2 days, media was exchanged and cells were differentiated for an additional 2 days in the absence of compound. Hemoglobin protein levels within each cell were determined at day 4 of differentiation.
(§1) To investigate whether HDAC1 or HDAC2 was the preferred therapeutic target, two compounds were used.

Bcl11A mRNA = experiment: GeneChip and quantitative real-time PCR time course; format: cell-based
From the text: (§2) ChIP-seq data, both by itself and in combination with gene expression data, will provide further insight into the mechanism through which HDAC1/2 regulates HbF synthesis.

Sox6 mRNA = experiment: as above; format: cell-based
From the text: as §2

Klf2 mRNA = experiment: as above; format: cell-based
From the text: as §2

Gata2 mRNA = experiment: as above; format: cell-based
From the text: as §2

[2] = test system: human CD34+ bone marrow cells; experiment: Cell viability / cytotoxicity in cultured CD34+ cells; format: cell-based; conditions: 1 μM, after 6 days of treatment
From the text: as §1

[3] = test system: human CD34+ bone marrow cells; experiment: Erythroid differentiation markers CD71 and glycophorinA; format: cell-based; conditions: 1 μM, 6 days
From the text: as §1

HDAC3 = HDAC3 (Homo sapiens (Human), UniProt O15379); experiment: HDAC enzyme assay; format: biochemical; conditions: enzyme pre-incubated with compound for 24 hours
HDAC3, sequence (O15379 whole entry): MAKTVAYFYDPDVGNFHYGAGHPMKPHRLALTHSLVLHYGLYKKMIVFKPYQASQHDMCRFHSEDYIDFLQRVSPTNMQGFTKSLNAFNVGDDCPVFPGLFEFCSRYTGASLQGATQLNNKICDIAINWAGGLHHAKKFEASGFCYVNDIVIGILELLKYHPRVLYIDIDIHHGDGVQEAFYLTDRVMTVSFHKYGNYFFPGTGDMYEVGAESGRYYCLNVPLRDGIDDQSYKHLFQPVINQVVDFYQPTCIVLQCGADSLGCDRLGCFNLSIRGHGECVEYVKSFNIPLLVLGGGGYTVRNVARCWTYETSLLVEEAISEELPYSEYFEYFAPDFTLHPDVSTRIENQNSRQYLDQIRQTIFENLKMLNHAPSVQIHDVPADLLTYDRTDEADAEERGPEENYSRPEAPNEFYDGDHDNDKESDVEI
HDAC3, sequence (Q9Y618 395-489 partner): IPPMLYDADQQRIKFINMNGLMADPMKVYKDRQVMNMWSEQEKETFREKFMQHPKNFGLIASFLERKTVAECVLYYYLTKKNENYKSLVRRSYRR
Procedure: (§3) Compounds for testing were diluted in DMSO to 50 fold the final concentration and a ten point three fold dilution series was made. The compounds were diluted in assay buffer (50 mM HEPES, pH 7.4, 100 mM KCl, 0.001% Tween-20, 0.05% BSA, 20 μM tris(2-carboxyethyl)phosphine) to 6 fold their final concentration. The HDAC enzymes (purchased from BPS Biosciences) were diluted to 1.5 fold their final concentration in assay buffer and pre-incubated with the compounds for 24 hours prior to addition of the substrate.
(§4) The substrate tripeptide substrate 3 (synthesized in house) for each enzyme was equal to the Km as determined by a substrate titration curve. The substrates were diluted in assay buffer at 6× their final concentration with 0.3 μM sequencing grade trypsin (Sigma). The substrate/trypsin mix was added to the enzyme/compound mix, the plate was shaken for 60 seconds and placed into a Spectramax M5 microtiter plate reader. The development of fluorescence was monitored for […] and the linear rate of the reaction was calculated. The IC50 was determined using Graph Pad Prism by a four parameter curve fit. The IC50 values obtained for the compounds of this invention are found in Table 1.

HDAC1 = HDAC1 (Homo sapiens (Human), UniProt Q13547); experiment: HDAC enzyme assay; format: biochemical; conditions: enzyme pre-incubated with compound for 24 hours
HDAC1, sequence (Q13547 whole entry): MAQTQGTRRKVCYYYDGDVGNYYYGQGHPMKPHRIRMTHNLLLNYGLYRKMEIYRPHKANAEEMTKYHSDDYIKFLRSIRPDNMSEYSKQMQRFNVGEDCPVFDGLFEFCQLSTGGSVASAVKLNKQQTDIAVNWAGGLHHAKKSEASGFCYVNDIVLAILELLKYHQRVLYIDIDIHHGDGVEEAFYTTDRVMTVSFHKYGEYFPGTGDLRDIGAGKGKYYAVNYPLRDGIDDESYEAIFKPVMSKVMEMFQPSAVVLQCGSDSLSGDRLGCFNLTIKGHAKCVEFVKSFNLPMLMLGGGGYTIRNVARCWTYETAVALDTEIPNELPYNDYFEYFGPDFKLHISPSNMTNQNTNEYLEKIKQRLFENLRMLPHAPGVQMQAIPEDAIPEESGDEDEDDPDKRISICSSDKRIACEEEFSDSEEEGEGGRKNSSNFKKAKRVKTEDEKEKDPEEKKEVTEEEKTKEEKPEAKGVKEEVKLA
Procedure: as §3, §4

HDAC2 = HDAC2 (Homo sapiens (Human), UniProt Q92769); experiment: HDAC enzyme assay; format: biochemical; conditions: enzyme pre-incubated with compound for 24 hours
HDAC2, sequence (Q92769 whole entry): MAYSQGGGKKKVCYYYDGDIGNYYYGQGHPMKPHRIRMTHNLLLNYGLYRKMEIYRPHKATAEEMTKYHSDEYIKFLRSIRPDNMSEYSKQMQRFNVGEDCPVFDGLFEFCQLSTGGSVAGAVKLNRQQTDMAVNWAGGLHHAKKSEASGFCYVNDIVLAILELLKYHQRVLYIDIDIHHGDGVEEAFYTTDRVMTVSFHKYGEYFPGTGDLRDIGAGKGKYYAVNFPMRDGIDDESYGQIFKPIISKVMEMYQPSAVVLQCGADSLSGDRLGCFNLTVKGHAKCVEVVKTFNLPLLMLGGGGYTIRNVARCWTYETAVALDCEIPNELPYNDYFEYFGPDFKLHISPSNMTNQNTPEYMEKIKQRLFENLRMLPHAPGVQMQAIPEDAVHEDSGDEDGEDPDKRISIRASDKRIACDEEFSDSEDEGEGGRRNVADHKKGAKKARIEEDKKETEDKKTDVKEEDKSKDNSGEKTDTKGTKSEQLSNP
Procedure: as §3, §4

[4] = test system: early erythroblasts (CD71+, GlyA−); experiment: Gene expression profiling, Affymetrix PrimeView GeneChips; format: cell-based; conditions: n=3 vs vehicle
From the text: (§5) Significant enrichment in other gene sets involving targets linked to HbG regulation, including lysine-specific demethylase 1 (LSD1) (Shi L, Nature Medicine, 2012) were identified.

[5] = test system: late erythroblasts (CD71+, GlyA+); experiment: as above; format: cell-based
From the text: as §5

| SMILES | increase in the percentage of HbG relative to other beta-like globin transcripts [1] | HbG induction in cells positive for both CD71 and GlyA ([1]; follow-up experiments, CD71+ GlyA+ cells) | decrease in Bcl11A mRNA (Bcl11A mRNA) | decrease in Sox6 mRNA (Sox6 mRNA) | increase in Klf2 mRNA (Klf2 mRNA) | increase in Gata2 mRNA (Gata2 mRNA) | decrease in cell viability [2] | cells positive for the erythroid differentiation markers CD71 and glycophorinA [3] | IC50 (HDAC3) | IC50 (HDAC1) | IC50 (HDAC2) | probe sets down regulated [4] | probe sets up regulated [4] | total probe set changes [5] |
| --- | --- | --- | --- | --- | --- | --- | --- | --- | --- | --- | --- | --- | --- | --- |
| Nc1ccc(-c2cccs2)cc1NC(=O)c1ccc2nc(N3CCNCC3)ccc2c1 [Compound 001, N-(2-amino-5-(thiophen-2-yl)phenyl)-2-(piperazin-1-yl)quinoline-6-carboxamide] | 3 fold | unable to induce HbG | 2 fold | 10 fold | 2 fold | 8 fold | approximately 3 fold | reduction | 0.114 µM | 0.004 µM | 0.015 µM | 681 | 1294 | 255 |
| Nc1ccc(-c2ccncc2)cc1NC(=O)c1ccc2c(c1)cc(C1CC1)n2CCN1CCOCC1 [Compound 004, N-(2-amino-5-(pyridin-4-yl)phenyl)-2-cyclopropyl-1-(2-morpholinoethyl)-1H-indole-5-carboxamide] | 3 fold | – | – | – | – | – | 1.2 fold | – | 0.247 µM | 0.027 µM | 0.024 µM | – | – | – |
